From patent publication US5919768A, “Di- and trivalent small molecule selectin inhibitors” (Texas Biotechnology Corporation, priority 1998, dated 1999) come the findings set out here.

Each structure is given as a SMILES string.

One experiment concerns the target T1, L-selectin (Homo sapiens, UniProt P14151).
T1 construct: amino terminal lectin, EGF, and complement regulatory-like repeats (CR) 1 and 2; made in house; host or cells: SF21 insect cells, baculovirus (BakPAK)
T1 sequence (P14151 39-318): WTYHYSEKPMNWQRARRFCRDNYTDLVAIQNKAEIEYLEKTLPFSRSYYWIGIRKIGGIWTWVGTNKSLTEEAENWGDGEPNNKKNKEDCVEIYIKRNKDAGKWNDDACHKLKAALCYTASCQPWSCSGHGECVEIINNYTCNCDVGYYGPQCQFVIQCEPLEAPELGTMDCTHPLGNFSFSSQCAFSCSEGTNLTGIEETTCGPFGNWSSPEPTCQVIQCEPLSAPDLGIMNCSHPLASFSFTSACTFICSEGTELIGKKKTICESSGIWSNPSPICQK
In words: Selectin binding assay: inhibition of binding of L-selectin to sialyl-Lewis^x (cell-protein; glycolipid-protein assay also mentioned). The following applies: for IC50: in vitro selectin assay. The method, then: (§1) Compounds were assayed for their ability to inhibit the binding of E-, P-, and/or L-selectin to sialyl-Lewis^x.
(§2) The E-selectin binding assays involved assessing the ability of HL60 cells that express sialyl-Lewis^x and Lewis^x to purified E-selectin, P-selectin and L-selectin recombinant proteins (cell-protein assay). A similar binding assay utilizing purified glycolipids and purified L-selectin recombinant protein (glycolipid-protein) was used to assess L-selectin binding.
(§3) All selectin fusion cassettes were generated by PCR from the E-selectin cDNA purchased from R&D Systems (Minneapolis, Minn.), and from the P-selectin and L-selectin cDNAs that were PCR cloned from total RNA extracted from human placenta. The mouse IgG cDNA was cloned from PCR amplified cDNA generated from RNA extracted from the hybridoma cell line 402C10. All fusion cassettes were expressed from baculovirus vectors using the BakPAK method and SF21 cells purchased from Clonetech.
(§4) Recombinant fusion proteins were purified from baculovirus infected culture supernatants by immunoprecipitation using Dynal™ goat anti-mouse IgG coated magnetic beads. Mock beads were generated from uninfected SF21 culture supernatants.
(§5) HL60 cells (10^7 cells) were fluorescently labeled with calcein AMC-3099 (Molecular Probes) in RPMI 1640 with 10% fetal calf serum (FCS). The magnetic beads (7 μl, 4×10^6 beads/ml) were incubated in duplicate wells of a flexible 96 well microtiter plate along with 7 μl of compound at various concentrations and 7 μl of calcein-labeled HL60 cells. The plates were incubated for ten minutes at room temperature. The plate was then placed on a magnetic separator and incubated for 2 more minutes. While the assay plate remained on the separator, unbound HL60 cells were removed and the wells were washed twice with phosphate buffered saline (PBS) to remove any remaining unbound cells. The HL60 cells remaining bound to the beads were inspected by microscopy and then lysed by adding […] of a 1% solution of NP40 in PBS. Binding was quantitated fluorimetrically using a Millipore Cytofluor 2350 fluorimeter.

In a further experiment the target is T2, E-selectin (Homo sapiens, UniProt P16581).
T2 construct: amino terminal lectin, EGF, and complement regulatory-like repeats (CR) 1 and 2; made in house; host or cells: SF21 insect cells, baculovirus (BakPAK)
T2 sequence (P16581 22-301): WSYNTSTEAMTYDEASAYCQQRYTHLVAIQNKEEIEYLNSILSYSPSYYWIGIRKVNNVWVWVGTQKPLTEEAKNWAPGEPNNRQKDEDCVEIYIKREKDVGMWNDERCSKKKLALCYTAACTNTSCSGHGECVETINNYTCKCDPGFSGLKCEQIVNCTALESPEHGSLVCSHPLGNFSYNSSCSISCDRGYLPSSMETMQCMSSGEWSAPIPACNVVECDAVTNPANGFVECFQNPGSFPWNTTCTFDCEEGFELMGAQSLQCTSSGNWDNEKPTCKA
As to the kind of experiment: Cell-protein assay: inhibition of binding of HL60 cells (expressing sialyl-Lewis^x) to E-selectin. Particulars: for IC50: HL60 cell binding to selectin fusion protein on magnetic beads. As to the method: as §1, §2, §3, §4, §5

The target of the next experiment is T3, P-selectin (Homo sapiens, UniProt P16109).
T3 construct: amino terminal lectin, EGF, and complement regulatory-like repeats (CR) 1 and 2; made in house; host or cells: SF21 insect cells, baculovirus (BakPAK)
T3 sequence (P16109 42-321): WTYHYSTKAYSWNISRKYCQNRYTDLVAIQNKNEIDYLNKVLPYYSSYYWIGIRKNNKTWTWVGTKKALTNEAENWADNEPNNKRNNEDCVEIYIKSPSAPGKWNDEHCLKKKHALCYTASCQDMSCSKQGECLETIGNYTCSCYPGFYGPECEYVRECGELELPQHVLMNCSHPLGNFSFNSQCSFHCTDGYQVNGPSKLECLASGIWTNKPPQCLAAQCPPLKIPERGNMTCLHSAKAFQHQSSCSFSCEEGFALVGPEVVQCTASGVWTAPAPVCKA
As to the kind of experiment: Cell-protein assay: inhibition of binding of HL60 cells (expressing sialyl-Lewis^x) to P-selectin. Particulars: HL60 cell binding to selectin fusion protein on magnetic beads. The method, then: as §1, §2, §3, §4, §5

Turning to `O=C(O)Cc1cccc(-c2cc(Cc3cccc(Cc4ccc(O[C@H]5O[C@H](CO)[C@@H](O)[C@H](O)[C@@H]5O)c(-c5cccc(CC(=O)O)c5)c4)c3)ccc2O[C@H]2O[C@H](CO)[C@@H](O)[C@H](O)[C@@H]2O)c1` [B-m], the results for the IC50 at L-selectin and on P-selectin were 3000 µM and 220 µM, respectively. For the same compound, on E-selectin (at 1 mM, read-out: E-Selectin % inhib.), the inhibition at 1000 µM was 0%.
Take `O=C(O)Cc1cccc(-c2cc(Cc3ccc(Cc4ccc(O[C@H]5O[C@H](CO)[C@@H](O)[C@H](O)[C@@H]5O)c(-c5cccc(CC(=O)O)c5)c4)cc3)ccc2O[C@H]2O[C@H](CO)[C@@H](O)[C@H](O)[C@@H]2O)c1` [B-p]: the IC50 (as a rule, the concentration that inhibits the measured activity by half) on L-selectin amounted to 3000 µM; at E-selectin, 2000 µM; at P-selectin, 2000 µM.
`O=C(O)Cc1cccc(-c2cc(Cc3ccc(Oc4ccc(Cc5ccc(O[C@H]6O[C@H](CO)[C@@H](O)[C@H](O)[C@@H]6O)c(-c6cccc(CC(=O)O)c6)c5)cc4)cc3)ccc2O[C@H]2O[C@H](CO)[C@@H](O)[C@H](O)[C@@H]2O)c1` [C]: on L-selectin (at 2 mM, read-out: L-Selectin % inhib.), the inhibition at 2000 µM came out at 0%. The IC50 on P-selectin amounted to 700 µM.
`O=C(O)Cc1cccc(-c2cc(CCCCc3ccc(O[C@H]4O[C@H](CO)[C@@H](O)[C@H](O)[C@@H]4O)c(-c4cccc(CC(=O)O)c4)c3)ccc2O[C@H]2O[C@H](CO)[C@@H](O)[C@H](O)[C@@H]2O)c1` [Compound A-4, 1,4-Bis-[3-(3-carboxymethylphenyl)-4-(2-α-D-mannopyranosyloxy)phenyl]butane] yielded an IC50 at L-selectin of 2000 µM.
Turning to `O=C(O)Cc1cccc(-c2cc(CCCCCc3ccc(O[C@H]4O[C@H](CO)[C@@H](O)[C@H](O)[C@@H]4O)c(-c4cccc(CC(=O)O)c4)c3)ccc2O[C@H]2O[C@H](CO)[C@@H](O)[C@H](O)[C@@H]2O)c1` [Compound A-5], the IC50 at L-selectin came to 300 µM; at E-selectin it was 400 µM; at P-selectin, 300 µM.
Regarding `O=C(O)Cc1cccc(-c2cc(CCCCCCCc3ccc(O[C@H]4O[C@H](CO)[C@@H](O)[C@H](O)[C@@H]4O)c(-c4cccc(CC(=O)O)c4)c3)ccc2O[C@H]2O[C@H](CO)[C@@H](O)[C@H](O)[C@@H]2O)c1` [Compound A-7], the IC50 on E-selectin amounted to 500 µM; on P-selectin, 400 µM.
As to `O=C(O)Cc1cccc(-c2cc(CCCCCCCCCc3ccc(O[C@H]4O[C@H](CO)[C@@H](O)[C@H](O)[C@@H]4O)c(-c4cccc(CC(=O)O)c4)c3)ccc2O[C@H]2O[C@H](CO)[C@@H](O)[C@H](O)[C@@H]2O)c1` [Compound A-9], the IC50 at E-selectin and on P-selectin was 1000 µM in each case.
On to `O=C(O)Cc1cccc(-c2cc(CCCSCCCSCCCc3ccc(O[C@H]4O[C@H](CO)[C@@H](O)[C@H](O)[C@@H]4O)c(-c4cccc(CC(=O)O)c4)c3)ccc2O[C@H]2O[C@H](CO)[C@@H](O)[C@H](O)[C@@H]2O)c1` [D], for which, on E-selectin (at 2 mM, read-out: E-Selectin % inhib.), the inhibition at 2000 µM is 29%. Further, on P-selectin, the IC50 was found to be 500 µM.
For the compound `O=C(O)COc1cccc(-c2cc(CCCCCCc3ccc(O[C@H]4O[C@H](CO)[C@@H](O)[C@H](O)[C@@H]4O)c(-c4cccc(OCC(=O)O)c4)c3)ccc2O[C@H]2O[C@H](CO)[C@@H](O)[C@H](O)[C@@H]2O)c1` [E], the values for the half-maximal inhibitory concentration (IC50) at L-selectin, on E-selectin and at P-selectin were 1400 µM, 3270 µM and 540 µM, respectively.
Take `O=C(O)Cc1cccc(-c2cc(C(=O)CCCCC(=O)c3ccc(O[C@H]4O[C@H](CO)[C@@H](O)[C@H](O)[C@@H]4O)c(-c4cccc(CC(=O)O)c4)c3)ccc2O[C@H]2O[C@H](CO)[C@@H](O)[C@H](O)[C@@H]2O)c1` [F]: the IC50 on L-selectin came out at 3000 µM; at E-selectin it was 1000 µM; on P-selectin it was 1000 µM.
As for `O=C(O)Cc1cccc(-c2cc(CCCC(=O)N3CCC(CCCC4CCN(C(=O)CCCc5ccc(O[C@H]6O[C@H](CO)[C@@H](O)[C@H](O)[C@@H]6O)c(-c6cccc(CC(=O)O)c6)c5)CC4)CC3)ccc2O[C@H]2O[C@H](CO)[C@@H](O)[C@H](O)[C@@H]2O)c1` [G], on L-selectin (at 3 mM, read-out: L-Selectin % inhib.), the inhibition at 3000 µM was found to be 0%. Further, the IC50 on P-selectin came to 1000 µM.
In the case of `O=C(O)Cc1cccc(-c2cc(Cc3cc(Cc4ccc(O[C@H]5O[C@H](CO)[C@@H](O)[C@H](O)[C@@H]5O)c(-c5cccc(CC(=O)O)c5)c4)cc(Cc4ccc(O[C@H]5O[C@H](CO)[C@@H](O)[C@H](O)[C@@H]5O)c(-c5cccc(CC(=O)O)c5)c4)c3)ccc2O[C@H]2O[C@H](CO)[C@@H](O)[C@H](O)[C@@H]2O)c1` [H], the IC50 at L-selectin was determined as 500 µM; on E-selectin it was 700 µM; on P-selectin it was 200 µM.
For the compound `O=C(O)Cc1cccc(-c2cc(C(=O)CSCc3cc(CSCC(=O)c4ccc(O[C@H]5O[C@H](CO)[C@@H](O)[C@H](O)[C@@H]5O)c(-c5cccc(CC(=O)O)c5)c4)cc(CSCC(=O)c4ccc(O[C@H]5O[C@H](CO)[C@@H](O)[C@H](O)[C@@H]5O)c(-c5cccc(CC(=O)O)c5)c4)c3)ccc2O[C@H]2O[C@H](CO)[C@@H](O)[C@H](O)[C@@H]2O)c1` [J], the 50% inhibitory concentration (IC50) on L-selectin came out at 2000 µM; on E-selectin it was 4000 µM.
